{
  "source": "patent US9597347B2",
  "about": "“Compositions for treating obesity and insulin resistance disorders” (President and Fellows of Harvard College, priority 2003, dated 2017)",
  "key": {"[1]": {"tested_on": "phosphorylation of ACC", "assay": "Western blot of ACC phosphorylation in 3T3-L1 adipocytes", "assay_type": "cell-based", "conditions": "harvested 6 or 10 days after induction of differentiation", "procedure": "Phosphorylation of ACC, which reflects AMPK activity, was also observed in 3T3-L1 adipocytes treated with either ethanol or resveratrol. 3T3-L1 cells were incubated with either ethanol or resveratrol and then harvested either 6 or 10 days after they were induced to differentiate into adipocytes from the parent 3T3 fibroblast cell line. […] ACC was also phosphorylated when the cells were incubated in serum free media overnight before harvesting (lanes marked “SF”). The reason for the extra band in the SIRT1 blot at day 6 is unknown, but we hypothesize that it may be a modified form of SIRT1. Tubulin served as a loading control."}, "[2]": {"tested_on": "DAF-16 mutant worms (mgDf47)", "assay": "Nile Red staining of fat accumulation in DAF-16 mutant worms (mgDf47)", "assay_type": "in vivo, C. elegans", "conditions": "defective in insulin-signaling", "procedure": "Sir2.1, which is activated by resveratrol, acts via the transcription factor DAF-16 to prolong lifespan in […] (Tissenbaum and Guarente (2001) Nature 410:227).\nC. elegans strains were maintained as described at 25° C., except when noted (Brenner (1974) Genetics 77:71). The wild type reference strain was N2 Bristol; the mutant strains were: sir-2.1(ok434), T01C8.1(ok524), and daf-16 (mgDf47). Daf-16 (mgDf47) was obtained from the Ruvkun laboratory, MGH; all other strains were obtained from the Caenorhabditis Genetics Center (from C. Elegans Gene Knockout Consortium).\nSynchronized starved L1 worms were grown in the presence of Nile Red. Strains were grown on NGM plates at 25° C. for approximately 48 hours until the young adult stage was reached. 20-30 young adult worms were then washed 2× with M9 buffer and transferred to new NGM/Nile red experimental plates that contained either OP50 or HTT5 E. coli carrying the L4440 RNAi control vector. For experiments comparing the effect of nicotinamide and resveratrol on fat mobilization, OP50 plates were coated with vehicle alone or Nicotinamide (in PBS), or vehicle alone and Resveratrol (in Ethanol or DMSO)."}, "[3]": {"tested_on": "C. elegans worms", "assay": "Nile Red fat staining in C. elegans fed RNAi bacteria", "assay_type": "in vivo", "procedure": "The role of Sir2.1 in fat metabolism was shown in C. elegans worms in which Sir2.1 was RNA inactivated. Young adult worms were grown to adulthood in the presence of bacteria that carry RNAi vector alone or vector encoding Sir2.1 RNAi (R11A8.4), as described below. These worms were grown in the presence or absence of resveratrol, and stained with Nile-Red as described below.\nWe have examined the C. elegans database and found two gene products that are highly related to mammalian AMPK, TOC1.8 and Par2.3; five genes encoding homologs of CPT-1 and one gene encoding a homolog of COT. C. elegans worms were incubated with bacteria carrying RNAi vector alone, or interfering RNA against TOC1.8 or F41E7.3, a C. elegans homologue of COT in the presence or absence of AICAR. Fat accumulation was visualized with Nile-Red, as described below. […] Thus, AICAR/AMPK signaling to fatty acid oxidation is conserved in worms and mammalian cells.\nThe effect of TOC1.8 and COT inactivation was then investigated in C. elegans incubated with resveratrol. C. elegans worms were incubated with bacteria carrying RNAi vector alone, or a vector encoding TOC1.8 or COT interfering RNA in the presence or absence of resveratrol. Fat accumulation was visualized with Nile-Red, as described below.\nRNAi plates were seeded with HTT5 E. coli carrying either the L4440 RNAi vector control or the specific RNAi clones T01C8.1, AMPK; R11A8.4, sir-2.1; or F41E7.6 COT in the presence or absence of 100 μM resveratrol. Young adults were transferred to plates containing the appropriate vector, Nile Red stain and drug then maintained at 25° C. Nile Red staining was assessed 24 hours after resveratrol treatment by UV microscopy.\nHT115 E. Coli carrying the RNAi vector, L4440, were used for maintenance feeding. Bacteria containing experimental RNAi clones were cultured in 10 ml Luria Broth media containing 50 μg/ml ampicillin for 18 hours. 350 μl of each culture was spotted to a 60 mm dish containing NGM agar, 6 mM IPTG and 25 μg/ml carbenicillin. After overnight incubation (at room temp), Nile Red was added on top of each dish to a final concentration of 0.05 μg/ml along with the experimental compounds indicated in the figure legends. Nile Red staining was assessed after 24 hrs by UV microscopy. For each batch of RNAi clones tested, L4440 (vector alone) was included. […] All phenotypes were confirmed by at least three additional rounds of testing."}, "[4]": {"tested_on": "phosphorylation of AMPK on threonine 172 and of ACC on serine 79", "assay": "Western analysis of AMPK and ACC phosphorylation in CHO-HIR cells", "assay_type": "cell-based", "procedure": "CHO-HIR mammalian cells were washed in PBS and incubated overnight in serum-free DMEM before treatment with 500 μM AICAR (positive control) or 12.5 μM, 25 μM or 50 μM resveratrol. Cells were harvested after 30 minutes and lysates were immediately boiled in SDS and subjected to Western analysis with site-specific antibodies. Phosphorylation of AMPK at Thr172 indicates activation of the kinase. Active AMPK phosphorylates and inactivates ACC at serine 79.\nCHO cells were also treated with 500 μM AICAR (positive control), DMSO, 100 nM, 500 nM, 2.5 μM, 12.5 μM, 25 μM, or 50 μM resveratrol and subject to Western Blot analysis as described above. Western blots were stripped and re-probed for phosphorylated (active) AMPK, total AMPK, phosphorylated acetyl CoA carboxylase (ACC), which is the downstream target of AMPK, and tubulin, which served as a loading control."}, "[5]": {"tested_on": "Wild-type N2 C. elegans worms", "assay": "Nile Red staining of fat accumulation in wild-type N2 C. elegans", "assay_type": "in vivo", "conditions": "100 μM, L1 animals, 48 hours, control 2.5% v/v DMSO"}},
  "data": [
    {"smiles": "Oc1ccc(/C=C/c2cc(O)cc(O)c2)cc1", "note": "[resveratrol, 3,5,4′-Trihydroxy-trans-stilbene]", "values": [
      {"measurement": "phosphorylation of ACC", "setting": "[1]", "value": "stimulated the phosphorylation of ACC at both day 6 and day 10"},
      {"measurement": "fat mobilization and fat accumulation", "setting": "[2]", "value": "stimulates fat mobilization and a decrease in fat accumulation"},
      {"measurement": "fat mobilization", "setting": "[3]; RNA inactivation of DAF-16, or inactivation of DAF-16 by mutation", "value": "had no effect on resveratrol-stimulated fat mobilization"},
      {"measurement": "fat mobilization", "setting": "[3]; RNA inactivation of TOC1.8 (AMPK homolog) or F41E7.3 (COT homolog)", "value": "blocks resveratrol-stimulated fat mobilization"},
      {"measurement": "reduction of fat content", "setting": "[3]; RNAi vector alone, 100 μM resveratrol, Nile Red assessed after 24 hours", "value": 75, "unit": "%"},
      {"measurement": "fat mobilization", "setting": "[3]; Sir2.1 RNAi (R11A8.4)", "value": "did not show resveratrol induced fat mobilization"},
      {"measurement": "activation of AMPK (phosphorylated AMPK and ACC)", "setting": "[4]; CHO cells, 100 nM, 500 nM, 2.5, 12.5, 25 or 50 μM", "value": "activation of AMPK in CHO cells with increasing concentrations of resveratrol"},
      {"measurement": "phosphorylation of AMPK (threonine 172) and ACC (serine 79)", "setting": "[4]; resveratrol 12.5, 25 or 50 μM, AICAR 500 μM (positive control), 30 minutes, serum-free overnight", "value": "stimulates phosphorylation of AMPK and ACC"},
      {"measurement": "fat staining", "setting": "[5]", "value": "Significant reduction of fat staining"}
    ]}
  ]
}
